Laboratory results taken from patent US8613914B2, “Peptidomimetic sulfamide compounds and antiviral uses thereof” (Novartis AG, priority 2009, dated 2013).

target: HCV NS3-4A serine protease (full-length NS3-4A protein) (Hepatitis C virus genotype 1a (isolate 1) (HCV), UniProt P26664); experiment: HCV NS3-4A protease assay; format: biochemical, HCV genotype 1a; settings: strain HCV-1, fluorogenic peptide substrate, read-out: Protease assay Ex. 12 IC50
Method: The inhibitory activity of certain compounds of Table A against HCV NS3-4A serine protease is determined in a homogenous assay using the full-length NS3-4A protein (genotype 1a, strain HCV-1) and a commercially available internally-quenched fluorogenic peptide substrate as described by Taliani, M., et al. 1996 Anal. Biochem. 240:60-67, which is incorporated by reference in its entirety.

Chain of HCV NS3-4A serine protease (full-length NS3-4A protein) (P26664 1027-1657): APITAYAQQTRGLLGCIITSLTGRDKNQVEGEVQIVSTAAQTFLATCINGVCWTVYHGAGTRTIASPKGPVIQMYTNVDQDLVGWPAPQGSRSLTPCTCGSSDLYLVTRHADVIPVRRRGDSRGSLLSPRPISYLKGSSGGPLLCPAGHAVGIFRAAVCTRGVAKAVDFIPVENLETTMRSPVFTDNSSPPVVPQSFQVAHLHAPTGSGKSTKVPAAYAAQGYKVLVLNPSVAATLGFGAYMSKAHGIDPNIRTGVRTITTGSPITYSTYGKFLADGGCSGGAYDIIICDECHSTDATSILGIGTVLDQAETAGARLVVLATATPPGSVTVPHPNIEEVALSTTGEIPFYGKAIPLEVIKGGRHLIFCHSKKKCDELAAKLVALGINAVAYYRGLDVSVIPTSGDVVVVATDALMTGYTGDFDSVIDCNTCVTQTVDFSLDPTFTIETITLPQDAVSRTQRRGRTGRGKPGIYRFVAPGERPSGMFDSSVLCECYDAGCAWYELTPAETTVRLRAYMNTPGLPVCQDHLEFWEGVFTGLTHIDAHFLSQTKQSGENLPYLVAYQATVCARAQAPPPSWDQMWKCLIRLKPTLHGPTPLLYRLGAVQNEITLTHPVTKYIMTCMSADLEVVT
Chain of HCV NS3-4A serine protease (full-length NS3-4A protein) (P26664 1658-1711 partner): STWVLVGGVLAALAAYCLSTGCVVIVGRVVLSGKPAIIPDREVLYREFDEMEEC

Compound | IC50
C=C[C@@H]1C[C@]1(NC(=O)[C@@H]1C[C@@]2(CN1C(=O)[C@@H](NC(=O)[C@@H](NC(=O)[C@@H]1CCCCN1C(C)C)C1CCCCC1)C1CCOCC1)C(C)(C)C21CCC1)C(=O)NS(=O)(=O)N(CC)CC [Compound 84, (5R,8S)-7-[(2S)-2-{[(2S)-2-cyclohexyl-2-({[(2S)-1-isopropylpiperidin-2-yl]carbonyl}amino)acetyl]amino}-2-(tetrahydro-2H-pyran-4-yl)acetyl]-N-[(1R,2S)-1-{[(diethylamino)sulfonyl]carbamoyl}-2-vinylcyclopropyl]-10,10-dimethyl-7-azadispiro[3.0.4.1]decane-8-carboxamide] | 6 nM
C=C[C@@H]1C[C@]1(NC(=O)[C@@H]1C[C@@]2(CN1C(=O)[C@@H](NC(=O)[C@@H](NC(=O)[C@@H]1CCCCN1CC)C1CCCCC1)C1CCOCC1)C(C)(C)C21CCC1)C(=O)NS(=O)(=O)N(CC)CC [Compound 85, (5R,8S)-7-[(2S)-2-{[(2S)-2-cyclohexyl-2-({[(2S)-1-ethylpiperidin-2-yl]carbonyl}amino)acetyl]amino}-2-(tetrahydro-2H-pyran-4-yl)acetyl]-N-[(1R,2S)-1-{[(diethylamino)sulfonyl]carbamoyl}-2-vinylcyclopropyl]-10,10-dimethyl-7-azadispiro[3.0.4.1]decane-8-carboxamide] | 4.5 nM
CC[C@@H]1C[C@]1(NC(=O)[C@@H]1C[C@@]2(CN1C(=O)[C@@H](NC(=O)[C@@H](NC(=O)[C@@H]1CCCCN1CC)C1CCCCC1)C(C)(C)C)C(C)(C)C21CCC1)C(=O)NS(=O)(=O)N(CC)CC [Compound 86, (5R,8S)-7-[(2S)-2-{[(2S)-2-cyclohexyl-2-({[(2S)-1-ethylpiperidin-2-yl]carbonyl}amino)acetyl]amino}-3,3-dimethylbutanoyl]-N-[(1R,2R)-1-{[(diethylamino)sulfonyl]carbamoyl}-2-ethylcyclopropyl]-10,10-dimethyl-7-azadispiro[3.0.4.1]decane-8-carboxamide] | 4.5 nM
CC[C@@H]1C[C@]1(NC(=O)[C@@H]1C[C@@]2(CN1C(=O)[C@@H](NC(=O)[C@@H](NC(=O)[C@@H]1CCCCN1CC)C1CCCCC1)C(C)(C)C)C(C)(C)C21CCC1)C(=O)NS(=O)(=O)N1CCCC1 [Compound 87, (5R,8S)-7-[(2S)-2-{[(2S)-2-cyclohexyl-2-({[(2S)-1-ethylpiperidin-2-yl]carbonyl}amino)acetyl]amino}-3,3-dimethylbutanoyl]-N-{(1R,2R)-2-ethyl-1-[(pyrrolidin-1-ylsulfonyl)carbamoyl]cyclopropyl}-10,10-dimethyl-7-azadispiro[3.0.4.1]decane-8-carboxamide] | 7 nM
C=C[C@@H]1C[C@]1(NC(=O)C1C[C@@]2(CN1C(=O)[C@@H](NC(=O)c1cccc(C(=O)NC)c1)C(C)(C)C)C(C)(C)C21CCC1)C(=O)NS(=O)(=O)N1CCCC1 (stereo partly drawn) [Compound 88, N-[(1S)-1-{[(5R)-10,10-dimethyl-8-({(1R,2S)-1-[(pyrrolidin-1-ylsulfonyl)carbamoyl]-2-vinylcyclopropyl}carbamoyl)-7-azadispiro[3.0.4.1]dec-7-yl]carbonyl}-2,2-dimethylpropyl]-N′-methylisophthalamide] | 500 nM
C=C[C@@H]1C[C@]1(NC(=O)[C@@H]1C[C@@]2(CN1C(=O)[C@@H](NC(=O)[C@@H](NC(=O)[C@@H]1CC(F)(F)CN1C(C)C)C1CCCCC1)C(C)(C)C)C(C)(C)C21CCC1)C(=O)NS(=O)(=O)N1CCCC1 [Compound 89, (5R,8S)-7-[(2S)-2-{[(2S)-2-cyclohexyl-2-({[(2S)-4,4-difluoro-1-isopropylpyrrolidin-2-yl]carbonyl}amino)acetyl]amino}-3,3-dimethylbutanoyl]-10,10-dimethyl-N-{(1R,2S)-1-[(pyrrolidin-1-ylsulfonyl)carbamoyl]-2-vinylcyclopropyl}-7-azadispiro[3.0.4.1]decane-8-carboxamide] | 30 nM
CC[C@@H]1C[C@]1(NC(=O)[C@@H]1C[C@@]2(CN1C(=O)[C@@H](NC(=O)[C@@H](NC(=O)[C@@H]1CCCCN1C(C)C)C1CCCCC1)C(C)(C)C)C(C)(C)C21CCC1)C(=O)NS(=O)(=O)N(C)C1CC1 [Compound 90, (5R,8S)-7-[(2S)-2-{[(2S)-2-cyclohexyl-2-({[(2S)-1-isopropylpiperidin-2-yl]carbonyl}amino)acetyl]amino}-3,3-dimethylbutanoyl]-N-[(1R,2R)-1-({[cyclopropyl(methyl)amino]sulfonyl}carbamoyl)-2-ethylcyclopropyl]-10,10-dimethyl-7-azadispiro[3.0.4.1]decane-8-carboxamide] | 6.5 nM
C=C[C@@H]1C[C@]1(NC(=O)[C@@H]1C[C@@]2(CN1C(=O)[C@@H](NC(=O)[C@@H](NC(=O)[C@@H]1CCCN1C(C)C)C1CCCCC1)C(C)(C)C)C(C)(C)C21CCC1)C(=O)NS(=O)(=O)N(C)CC [Compound 91, (5R,8S)-7-[(2S)-2-{[(2S)-2-cyclohexyl-2-({[(2S)-1-isopropylpyrrolidin-2-yl]carbonyl}amino)acetyl]amino}-3,3-dimethylbutanoyl]-N-[(1R,2S)-1-({[ethyl(methyl)amino]sulfonyl}carbamoyl)-2-vinylcyclopropyl]-10,10-dimethyl-7-azadispiro[3.0.4.1]decane-8-carboxamide] | 5 nM
C=C[C@@H]1C[C@]1(NC(=O)[C@@H]1C[C@@]2(CN1C(=O)[C@@H](NC(=O)[C@@H](NC(=O)[C@H]1CCCCN1C(C)C)C1CCCCC1)C(C)(C)C)C(C)(C)C21CCC1)C(=O)NS(=O)(=O)N(C)CC [Compound 92, (5R,8S)-7-[(2S)-2-{[(2S)-2-cyclohexyl-2-({[(2R)-1-isopropylpiperidin-2-yl]carbonyl}amino)acetyl]amino}-3,3-dimethylbutanoyl]-N-[(1R,2S)-1-({[ethyl(methyl)amino]sulfonyl}carbamoyl)-2-vinylcyclopropyl]-10,10-dimethyl-7-azadispiro[3.0.4.1]decane-8-carboxamide] | 3 nM
C=C[C@@H]1C[C@]1(NC(=O)[C@@H]1C[C@@]2(CN1C(=O)[C@@H](NC(=O)[C@@H](NC(=O)[C@@H]1CCCCN1C)C1CCCCC1)C(C)(C)C)C(C)(C)C21CCC1)C(=O)NS(=O)(=O)N(C)CC [Compound 93, (5R,8S)-7-[(2S)-2-{[(2S)-2-cyclohexyl-2-({[(2S)-1-methylpiperidin-2-yl]carbonyl}amino)acetyl]amino}-3,3-dimethylbutanoyl]-N-[(1R,2S)-1-({[ethyl(methyl)amino]sulfonyl}carbamoyl)-2-vinylcyclopropyl]-10,10-dimethyl-7-azadispiro[3.0.4.1]decane-8-carboxamide] | 2 nM
C=C[C@@H]1C[C@]1(NC(=O)[C@@H]1C[C@@]2(CN1C(=O)[C@@H](NC(=O)[C@@H](NC(=O)[C@@H]1CCCCN1CC)C1CCCCC1)C(C)(C)C)C(C)(C)C21CCC1)C(=O)NS(=O)(=O)N(C)CC [Compound 94, (5R,8S)-7-[(2S)-2-{[(2S)-2-cyclohexyl-2-({[(2S)-1-ethylpiperidin-2-yl]carbonyl}amino)acetyl]amino}-3,3-dimethylbutanoyl]-N-[(1R,2S)-1-({[ethyl(methyl)amino]sulfonyl}carbamoyl)-2-vinylcyclopropyl]-10,10-dimethyl-7-azadispiro[3.0.4.1]decane-8-carboxamide] | 1.5 nM
C=C[C@@H]1C[C@]1(NC(=O)[C@@H]1C[C@@]2(CN1C(=O)[C@@H](NC(=O)[C@@H](NC(=O)[C@@H]1CCCN1CC)C1CCCCC1)C(C)(C)C)C(C)(C)C21CCC1)C(=O)NS(=O)(=O)N1CCCCC1 [Compound 95, (5R,8S)-7-[(2S)-2-{[(2S)-2-cyclohexyl-2-({[(2S)-1-ethylpyrrolidin-2-yl]carbonyl}amino)acetyl]amino}-3,3-dimethylbutanoyl]-10,10-dimethyl-N-{(1R,2S)-1-[(piperidin-1-ylsulfonyl)carbamoyl]-2-vinylcyclopropyl}-7-azadispiro[3.0.4.1]decane-8-carboxamide] | 5 nM
C=C[C@@H]1C[C@]1(NC(=O)[C@@H]1C[C@@]2(CN1C(=O)[C@@H](NC(=O)[C@@H](NC(=O)[C@@H]1CCCN1CC)C1CCCCC1)C1CCOCC1)C(C)(C)C21CCC1)C(=O)NS(=O)(=O)N(CC)CC [Compound 96, (5R,8S)-7-[(2S)-2-{[(2S)-2-cyclohexyl-2-({[(2S)-1-ethylpyrrolidin-2-yl]carbonyl}amino)acetyl]amino}-2-(tetrahydro-2H-pyran-4-yl)acetyl]-N-[(1R,2S)-1-{[(diethylamino)sulfonyl]carbamoyl}-2-vinylcyclopropyl]-10,10-dimethyl-7-azadispiro[3.0.4.1]decane-8-carboxamide] | 7 nM
C=C[C@@H]1C[C@]1(NC(=O)[C@@H]1C[C@@]2(CN1C(=O)[C@@H](NC(=O)[C@@H](NC(=O)[C@@H]1CCCN1CC)C1CCCC1)C(C)(C)C)C(C)(C)C21CCC1)C(=O)NS(=O)(=O)N(CC)CC [Compound 97, (5R,8S)-7-[(2S)-2-{[(2S)-2-cyclopentyl-2-({[(2S)-1-ethylpyrrolidin-2-yl]carbonyl}amino)acetyl]amino}-3,3-dimethylbutanoyl]-N-[(1R,2S)-1-{[(diethylamino)sulfonyl]carbamoyl}-2-vinylcyclopropyl]-10,10-dimethyl-7-azadispiro[3.0.4.1]decane-8-carboxamide] | 10 nM
C=C[C@@H]1C[C@]1(NC(=O)[C@@H]1C[C@@]2(CN1C(=O)[C@@H](NC(=O)[C@@H](NC(=O)[C@@H]1CCCN1CC)C1CCCCC1)C(C)(C)C)C(C)(C)C21CCC1)C(=O)NS(=O)(=O)N(C)CCC [Compound 98, (5R,8S)-7-[(2S)-2-{[(2S)-2-cyclohexyl-2-({[(2S)-1-ethylpyrrolidin-2-yl]carbonyl}amino)acetyl]amino}-3,3-dimethylbutanoyl]-10,10-dimethyl-N-[(1R,2S)-1-({[methyl(propyl)amino]sulfonyl}carbamoyl)-2-vinylcyclopropyl]-7-azadispiro[3.0.4.1]decane-8-carboxamide] | 7 nM
